Measurements: patent US20090118194A1, “Measurement of melanocortin peptides and uses thereof” (Auckland UniServices Limited, priority 2002, published 2009)

Test system: hypothalamic proteins
Assay: Hypothalamic proteins after subcutaneous injection of new-born rats for 14 days
Type: in vivo, rat
Conditions: hypothalamus, s.c. for 14 days
Experimental: Tables 3 and 4 represent data from a neonatal study, where the two MSH peptides were injected subcutaneously into new-born rats for 14 days, and the changes in hypothalamic proteins assessed with the same method as the above study.
Adult female Wistar rats were housed in plastic cages and kept on a 12-h dark/light cycle. Animals received tap water and rat pellets ad libitum and were mated with males of the same strain. Each litter of new-born Wistar rats was culled to 9 pups per mother.
PBS or freshly prepared peptide solutions made up freshly in PBS containing 0.1% BSA were injected subcutaneously once per day in a volume of 40 μl for 14 days. Animals were injected on day 14 and 1 h later they were euthanised using sodium pentobarbital.

SYSMEHFRWGKPV [desacetyl-α-MSH, non-acetylated form of α-MSH, obtained from Bachem]
ATP synthase, H+ transporting (p1379), level compared to control: 1.7 fold decrease
RIKEN cDNA0610011D08 (p1381), level compared to control: 3.3 fold increase
cofilin (p1854), level compared to control: 1.9 fold increase
creatine kinase brain (p1079), level compared to control: 1.9 fold increase
creatine kinase brain (p1251), level compared to control: 2.1 fold increase
dihydropyrimidinase-like 2 (p537), level compared to control: 2.5 fold decrease
heat shock protein (p1445), level compared to control: 2.0 fold increase
hypothetical protein XP_112457 (p1936), level compared to control: 2.2 fold increase
prohibitin homologue (p1458), level compared to control: 1.7 fold increase
protein kinase C inhibitor (p1790), level compared to control: 1.8 fold increase
similar to SH3-containing protein SH3GLB2 (p1557), level compared to control: 4.0 fold increase
similar to phosphoglycerate kinase (p1363), level compared to control: 1.6 fold increase
spectrin fragment (p1362), level compared to control: 2.5 fold decrease
stathmin (p1610), level compared to control: 2.6 fold increase
stathmin P*Ser38 (p1588), level compared to control: 1.7 fold increase
triosephosphate isomerase (p1339), level compared to control: 2.1 fold increase
tubulin beta (p1520), level compared to control: 1.6 fold increase
